# B1: PNA: lectin extracted from the peanut (Arachis hypogaea) which recognizes the terminal disaccharide of the TF-antigen (protein, UniProt P02872 24-273, looked up)
# Galactose-binding lectin: AETVSFNFNSFSEGNPAINFQGDVTVLSNGNIQLTNLNKVNSVGRVLYAMPVRIWSSATGNVASFLTSFSFEMKDIKDYDPADGIIFFIAPEDTQIPAGSIGGGTLGVSDTKGAGHFVGVEFDTYSNSEYNDPPTDHVGIDVNSVDSVKTVPWNSVSGAVVKVTVIYDSSTKTLSVAVTNDNGDITTIAQVVDLKAKLPERVKFGFSASGSLGGRQIHLIRSWSFTSTLITTTRRSIDNNEKKIMNMASA
# Assays:
# [1] = tested on: TF Antigen Binding with MAb 49H.8 (Ta3-Ha Conditioned Medium); experiment: Inhibition of TF antigen binding with MAb 49H.8 by synthetic carbohydrates in SRIA, Ta3-Ha conditioned medium; parameters: species or system murine
# Description: (§1) Breakable strips of microtitre wells were coated with MAb […].8 or a control antibody (MOPC-104E), 1 μg/well, by overnight incubation at 4° C. The wells were then serially incubated with FBS 5% in PBS at 37° C. for 30 minutes, with antigen solution at 37° C. for two hours, and with radioiodinated PNA (2×10^5 cpm/well) at room temperature for two hours. The wells were washed with PBS containing 0.05% Tween-20 after each of the above steps. Each well was counted for ^125 I activity using a gamma counter.
# [2] = tested on: TF Antigen Binding with MAb 49H.8 (647V Conditioned Medium); experiment: Inhibition of TF antigen binding with MAb 49H.8 by synthetic carbohydrates in SRIA, 647V conditioned medium; parameters: species or system human
# Description: as §1
# [3] = tested on: TF Antigen Binding with MAb 49H.8 (PE89); experiment: Inhibition of TF antigen binding with MAb 49H.8 by synthetic carbohydrates in SRIA, PE89; parameters: species or system human
# Description: as §1
# [4] = tested on: TF Antigen Binding with MAb 49H.8 (LS174T Conditioned Medium); experiment: Inhibition of TF antigen binding with MAb 49H.8 by synthetic carbohydrates in SRIA, LS174T conditioned medium; parameters: species or system human
# Description: as §1
# [5] = tested on: antigen capture by MAb 49H.8; experiment: Inhibition of the antigen capture by synthetic carbohydrate haptens; format: binding
# Description: as §1
# [6] = tested on: 49H.8; details: inhibitor concentration of 2 mg/ml; cited from earlier work
# [7] = tested on: carcinoma cell lines; details: all nine cell lines named; cited from earlier work
molecule,measurement,setting,value
OC[C@H]1O[C@@H](Oc2ccccc2)[C@H](O)[C@@H](O)[C@H]1O [Phenyl-β-D-galactoside],"% Inhibition ± SD, Ta3-Ha Conditioned Medium",[1]; inhibitor 5 mM,69.40%
same,"% Inhibition ± SD, Ta3-Ha Conditioned Medium",[1]; inhibitor 10 mM,96.25%
same,"% Inhibition ± SD, 647V Conditioned Medium",[2]; inhibitor 5 mM,66.60%
same,"% Inhibition ± SD, 647V Conditioned Medium",[2]; inhibitor 10 mM,90.12%
same,"% Inhibition ± SD, PE89",[3]; inhibitor 5 mM,45.48%
same,"% Inhibition ± SD, PE89",[3]; inhibitor 10 mM,69.04%
same,"% Inhibition ± SD, LS174T Conditioned Medium",[4]; inhibitor 5 mM,86.95%
same,"% Inhibition ± SD, LS174T Conditioned Medium",[4]; inhibitor 10 mM,95.91%
same,Inhibition of the positive reactivity in the sandwich assay (in words),[5],inhibited
CC(=O)N[C@@H]1[C@@H](O[C@@H]2O[C@H](CO)[C@H](O)[C@H](O)[C@H]2O)[C@@H](O)[C@@H](CO)O[C@H]1O [beta anomer],inhibition in binding of 49H.8 to neuraminidase-treated erythrolytes,[6],29%
O=[N+]([O-])c1ccc(O[C@@H]2O[C@H](CO)[C@H](O)[C@H](O)[C@H]2O)cc1 [p-nitrophenyl-β-D-galactoside],Inhibition of the positive reactivity in the sandwich assay (in words),[5],inhibited
"CC(=O)N[C@@H]1[C@@H](O[C@@H]2O[C@H](CO)[C@H](O)[C@H](O)[C@H]2O)[C@@H](O)[C@@H](CO)O[C@@H]1O [TF disaccharide, D-β-Gal (1-3)-α-GalNAc]",inhibition in binding of 49H.8 to neuraminidase-treated erythrolytes,[6],33%
p-nitrophenyl-α-D-galactoside [p-nitrophenyl α-D-galactoside],Inhibition of the positive reactivity in the sandwich assay (in words),[5],did not show any inhibition
OC[C@H]1O[C@@H](Oc2ccccc2)[C@H](O)[C@@H](O)[C@@H]1O [Phenyl-β-D-glucoside],"% Inhibition ± SD, Ta3-Ha Conditioned Medium",[1]; inhibitor 5 mM,3.92%
same,"% Inhibition ± SD, Ta3-Ha Conditioned Medium",[1]; inhibitor 10 mM,1.38%
same,"% Inhibition ± SD, 647V Conditioned Medium",[2]; inhibitor 5 mM,-3.00%
same,"% Inhibition ± SD, 647V Conditioned Medium",[2]; inhibitor 10 mM,0.58%
same,"% Inhibition ± SD, PE89",[3]; inhibitor 5 mM,-6.41%
same,"% Inhibition ± SD, PE89",[3]; inhibitor 10 mM,-4.61%
same,"% Inhibition ± SD, LS174T Conditioned Medium",[4]; inhibitor 5 mM,-7.15%
same,"% Inhibition ± SD, LS174T Conditioned Medium",[4]; inhibitor 10 mM,-1.67%
same,Inhibition of the positive reactivity in the sandwich assay (in words),[5],did not show any inhibition
OC[C@H]1OC(O)[C@H](O)[C@@H](O)[C@H]1O (stereo partly drawn) [D-Gal],inhibition in binding of 49H.8 to neuraminidase-treated erythrolytes,[6],5%
B1,Binding to carcinoma cell lines,[7],marked

# Source: patent US5110911A, “Human tumor-associated Thomsen-Friedenreich antigen” (Biomira, Inc., priority 1989, dated 1992)
